One data set has as its system SARS-CoV-2. The data set can be described thus: SARS-CoV-2 Nluc antiviral assay in A549-hACE2 cells. To be noted: for Nluc signal (SARS-CoV-2 replication): 10 μM of CQ or HCQ alone. Format: cell-based.
Data set [1] concerns A549-hACE2 cells. Particulars: Formula Ia and HCQ combination concentrations analyzed (data not shown).
The conditions of data set [2]: doses recommended under the former EUA guidance for COVID-19; cited from earlier work.
In data set [3] the test system is respiratory syncytial virus (RSV). As to the kind of experiment: microbe, parasite or virus in culture. Format: cell-based. Particulars: human respiratory syncytial virus, HEp-2, read-out: Formula Ia RSV EC50, HEp2 cells. The protocol: The cells were then infected with RSV A2 virus diluted in DMEM medium+GlutaMAX at an MOI=4 and incubated for 4 days at 37° C. and 5% CO2. The final volume in each well was 200 μL. Uninfected and untreated wells were included as controls for 100% cell viability. Following the incubation, 100 μL of culture supernatant was removed from each well and replaced with 100 μL of CellTiter-Glo reagent (Promega). The plates were then rocked for 2 minutes followed by a 10-minute incubation at 25° C. Cell viability was then assessed by measuring luminescence signal using and Envision plate reader. Values were normalized to the uninfected and infected DMSO controls (as 100% and 0% […], respectively) and data was fit using non-linear regression analysis with the XLfit software.

Data set [4] concerns A549-hACE2 cells. To be noted: for Mean RDV-TP: human, 1 μM.
Data set [5] deals with HEp-2 cells. As to the kind of experiment: Formula Ia triphosphate (RDV-TP) formation in HEp-2 cells, LC-MS/MS. Particulars: 2 h.
For data set [6], the system named is HEp-2 cells.
Where [7] appears, read: Severe acute respiratory syndrome coronavirus 2, read-out: SARS-CoV-2 Nluc EC50, A549-hACE2 cells, single agent + DMSO.

Read-outs that look alike come from different tables or passages of the source.

A word on the EC50: it is the concentration at which the effect is half-maximal. Consider `CCN(CCO)CCCC(C)Nc1ccnc2cc(Cl)ccc12` (centres unmarked) [HCQ, 2-[{4-[(7-chloroquinolin-4-yl)amino]pentyl}(ethyl)amino]ethanol, reference compound], for which the “Nluc signal (SARS-CoV-2 replication)” value in the data set on SARS-CoV-2 (A549-hACE2 cells) was “fully suppressed”. In the data set with SARS-CoV-2 (setting [7]), the EC50 is about 365 nM. In addition, in the data set on A549-hACE2 cells [1], the Cytotoxicity entry is reported as “not observed”. For the same molecule, the Average systemic exposures result in data set [2] is recorded as “approximately 1.7 μM”.

As for `CCC(CC)COC(=O)[C@H](C)N[P@](=O)(OC[C@H]1O[C@@](C#N)(c2ccc3c(N)ncnn23)[C@H](O)[C@@H]1O)Oc1ccccc1` [Formula Ia, (S)-2-ethylbutyl 2-(((S)-(((2R,3S,4R,5R)-5-(4-aminopyn-olo[2,1-f][1,2,4]triazin-7-yl)-5-cyano-3,4-dihydroxytetrahydrofuran-2-yl)methoxy)(phenoxy)phosphoryl)amino)propanoate], the EC50 stood at 49.5 ± 13.1 nM in data set [3] (chloroquine 0 nM); 58.4 ± 12.8 nM in data set [3] (chloroquine 10 nM); 72.1 ± 24.8 nM in data set [3] (chloroquine 40 nM); 99.6 ± 30.3 nM in data set [3] (chloroquine 160 nM); 138 ± 33.8 nM in data set [3] (chloroquine 640 nM); 209 ± 18.2 nM in data set [3] (chloroquine 2560 nM). Moreover, the EC50 stood at 63.6 nM in the data set with SARS-CoV-2 (read-out: SARS-CoV-2 Nluc EC50, A549-hACE2 cells, + 10 nm HCQ); 50.7 nM with SARS-CoV-2 (read-out: SARS-CoV-2 Nluc EC50, A549-hACE2 cells, + 40 nm HCQ); 46 nM in the data set with SARS-CoV-2 (read-out: SARS-CoV-2 Nluc EC50, A549-hACE2 cells, + 640 nm CQ); 63 nM in the data set with SARS-CoV-2 (read-out: SARS-CoV-2 Nluc EC50, A549-hACE2 cells, + 2500 nm HCQ). Also, the “Mean RDV-TP” value in the data set with A549-hACE2 cells [4] (2 h) is listed as 3.6 ± 0.2 pmol/million cells; with A549-hACE2 cells [4] (24 h), 6.8 ± 1.3 pmol/million cells; in the data set on A549-hACE2 cells [4] (48 h), 3.0 ± 0.5 pmol/million cells; with HEp-2 cells [5] (1 μM Formula Ia + 1 μM CQ) it was “BLQ”; with HEp-2 cells [5] (1 μM Formula Ia + 1 μM HCQ), “BLQ”; in the data set with HEp-2 cells [5] (1 μM Formula Ia + 10 μM CQ), “BLQ”. In addition, the “Mean RDV-TP” value in the data set with HEp-2 cells [5] (1 μM Formula Ia + 10 μM HCQ) and with HEp-2 cells [5] (1 μM Formula Ia alone) was “BLQ” throughout.

For the molecule `CCN(CC)CCCC(C)Nc1ccnc2cc(Cl)ccc12` (centres unmarked) [CQ, N′-(7-chloroquinolin-4-yl)-N,N-diethyl-pentane-1,4-diamine, reference compound], in the data set with SARS-CoV-2 (A549-hACE2 cells), the “Nluc signal (SARS-CoV-2 replication)” value is “fully suppressed”. In the data set with SARS-CoV-2 (setting [7]), the EC50 is about 451 nM. For the same molecule, in the data set on A549-hACE2 cells [4], the “Effect on Formula Ia-TP levels” value was “did not significantly reduce” and the “Effect on production of Formula Ia-TP” value is “did significantly lower”. Also, the “Effect on Formula Ia-TP levels” value in the data set with NHBE cultures was “not statistically significant”. Moreover, the “Effect on formation of intracellular Formula Ia-TP” value with HEp-2 cells [6] is “dose-dependent reduction”. For the same molecule, the Average systemic exposures in data set [2] was 610 to 760 nM.

Values taken from patent US11491169B2, “Remdesivir treatment methods” (Gilead Sciences, Inc., priority 2020, dated 2022).
